From publication PMC10531319, “Hemostatically Active Proteinase Produced by Aspergillus ochraceus: Key Specific Properties and Effect on Target Proteins” (International Journal of Molecular Sciences, 2023)
Non-standard residues stand in square brackets, D forms with d. Residues, ends and D or L forms follow the SMILES beside them. *: point of attachment. pNA = O=[N+]([O-])c1ccc(N*)cc1

Tested on: T1, A. ochraceus proteinase
T1 construct: native extracellular enzyme from culture liquid; about 35 kDa, non-glycosylated
Assay: chromogenic assay, pNA release at […] nm, Lineweaver-Burk and Eadie-Hofstee plots
Assay type: biochemical, Aspergillus ochraceus
Details: 0.05 M Tris-HCl pH 8.2, 37 °C; substrate 0.25-2.0 mg/mL

Question: For `CC(C)C[C@@H](N)C(=O)N[C@@H](CCCCN)C(=O)Nc1ccc([N+](=O)[O-])cc1` [H-D-Leu-Lys-pNA] (H-[dL]-Lys-pNA), which Km is on record?
Answer: 3.48 mM
